Data taken from patent US20170266152A1, “PHARMACEUTICAL COMPOSITION, METHODS FOR TREATING AND USES THEREOF” (Boehringer Ingelheim International GmbH, priority 2016, published 2017).

Tests used:
[1] = patients with type 2 diabetes mellitus and high cardiovascular risk; cited from earlier work
[2] = Clinical studies of haemodynamic, vascular and autonomic cardiovascular effects of empagliflozin; assay type: in vivo
Description: It may be assumed that altered glucose and sodium gradients within the kidney may generate a sympathoinhibitory afferent renal nerve signal. The lack of sympathetic activation may contribute to a beneficial cardiovascular and renal profile of empagliflozin (cardiorenal axis). Based on clinical and non-clinical studies including mechanistic considerations, such as the effect of empagliflozin on human autonomic cardiovascular regulation, the use of empagliflozin in the treatment and prevention of certain diseases and conditions, in particular in chronic heart failure, acute heart failure and chronic kidney disease, is described hereinbefore and hereinafter.

[3] = Cherney et al. 2014; cited from earlier work
[4] = crystalline form (WO 2006/117359, WO 2011/039107); cited from earlier work
[5] = metformin on its own, in the diabetic; cited from earlier work

Structure (SMILES)	risk of hospitalization for heart failure [1]	reflex-mediated sympathetic activation ([2]; in contrast to increases observed with diuretics)	blood pressure ([2]; treatment with empagliflozin)	heart rate ([2]; treatment with empagliflozin)	rate pressure product (RPP), surrogate marker of cardiac oxygen demand ([2]; treatment with empagliflozin)	arterial stiffness [3]	direct vascular effects [3]	diuretic effect [3]	physico-chemical stability [4]	solubility [4]	average improvement in the HbA1c value [5]
OC[C@H]1O[C@@H](c2ccc(Cl)c(Cc3ccc(O[C@H]4CCOC4)cc3)c2)[C@H](O)[C@@H](O)[C@@H]1O [empagliflozin, 1-chloro-4-(β-D-glucopyranos-1-yl)-2-[4-((S)-tetrahydrofuran-3-yloxy)-benzyl]-benzene]	reduced the risk	not being associated with clinically relevant reflex-mediated sympathetic activation	blood pressure reductions	without clinically relevant changes of the heart rate	improving rate pressure product	reduced arterial stiffness	direct vascular effects	shows a diuretic effect	physico-chemically stable	good solubility properties	
CN(C)C(=N)N=C(N)N [metformin]											1.0-1.5%
